Reference: article PMC6522510 (Nature Communications, 2019)

Experiments:
Set-up in all cases: species or system AML cell lines (8); Primary HTS, single concentration about 10 uM, Cell Titer Glo viability; log10 luminescence, per cent inhibition relative to cycloheximide control
Conditions in all cases: 72 h, relative to cycloheximide control, log10 luminescence; inhibitor
CHRF288-11 = test system: CHRF288-11
CMK = test system: CMK
CMS = test system: CMS
M07e = test system: M07e
ML-2 = test system: ML-2
MOLM-13 = test system: MOLM-13
MV4-11 = test system: MV4-11
U937 = test system: U937

| Structure (SMILES) | CHRF288-11 %inh (CHRF288-11) [%] | CMK %inh (CMK) [%] | CMS %inh (CMS) [%] | M07e %inh (M07e) [%] | ML-2 %inh (ML-2) [%] | MOLM-13 %inh (MOLM-13) [%] | MV4-11 %inh (MV4-11) [%] | U937 %inh (U937) [%] |
| --- | --- | --- | --- | --- | --- | --- | --- | --- |
| CC1=C(C(=O)Nc2cc(Cl)c3[nH]ncc3c2)C(c2ccc(C(F)(F)F)cc2)CC(=O)N1 (centres unmarked) [SJ000573181-1, SD204573-088A4] | 20.3 | 54.4 | 8.733 | 13.65 | 13.01 | 4.804 | 31.1 | 8.409 |
| Nc1nccc(-c2c(-c3ccc(F)cc3)ncn2C2CCC(O)CC2)n1 (centres unmarked) [SJ000573182-1, MS27011-022A2] | 23.09 | 25.82 | 9.299 | 6.63 | 10.85 | 26.67 | 24.38 | 5.213 |
| O=C1NC(=O)C(c2ccccc2Cl)=C1Nc1cccc(O)c1 [SJ000573183-1, BS98679-018A5] | 41.21 | 56.79 | 26.93 | 51.61 | 39.83 | 67.3 | 22.8 | 51.74 |
| COc1cccc(-c2c[nH]c3c(N/N=C/c4ccncc4)ncnc23)c1 [SJ000573184-1, U18675/6/1] | 52.41 | 96.73 | 90.74 | 38.1 | 19.51 | 59.82 | 58.64 | 14.24 |
| NC(=O)c1sc(-n2cnc3cc(C(F)(F)F)ccc32)cc1OCc1ccccc1Br [SJ000573185-1, U19121/197/1] | 0.2512 | 3.577 | -1.069 | -2.426 | -0.4297 | 0.4978 | 1.859 | -0.2413 |
| CS(=O)(=O)Nc1cccc(-c2ccc3c(NC(=O)C4CC4)n[nH]c3c2)c1 [SJ000573187-1, VB100064-178A3] | 25.27 | 72.59 | 0.4745 | 29.33 | 56.77 | 75.64 | 73.57 | 80.28 |
| [O-][S+]1CCN(Cc2ccc(-c3ccc4ncnc(Nc5ccc(OCc6ccccc6)c(F)c5)c4c3)o2)CC1 [SJ000573188-1, U14859/145/2] | 1.525 | -1.588 | -1.026 | -1.871 | -0.4978 | 2.781 | 1.608 | -0.5877 |
| O=C(Nc1n[nH]c2cc(-c3cc(F)ccc3F)ccc12)C1CC1 [SJ000573189-1, VB100064-133A2] | 23.56 | 46.32 | 3.394 | 13.96 | 4.109 | 3.339 | 1.045 | 8.276 |
| CC1(C)CC(n2cnc(-c3ccc(F)cc3)c2-c2ccnc(N)n2)CC(C)(C)N1 [SJ000573190-1, JB19236-188C1] | 9.345 | 5.841 | -2.621 | 10.18 | 5.936 | 0.169 | 1.547 | -2.021 |
| CC(C)c1ccc(Nc2nccc(-c3cnn4ncccc34)n2)cc1 [SJ000573192-1, U16419/190/2] | 27.16 | 58.79 | 101.8 | 49.73 | 59.67 | 111.4 | 84.54 | 82.47 |
| CCc1cccc(NC(=O)Nc2ccc(Oc3ccc4nc(NC(=O)OC)[nH]c4c3)cc2)c1 [SJ000573193-1, T229/79/1] | -2.602 | 50 | -0.1127 | 0.5293 | 5.896 | 61.84 | 84.23 | 3.761 |
| Cc1nnc(-c2ccc(C)c(-c3ccc(C(=O)Nc4cccc(C#N)c4)cc3)c2)o1 [SJ000573195-1, R4373/145/1] | -2.997 | 1.609 | -1.248 | -0.9532 | 2.033 | 1.779 | 0.5717 | -2.444 |
| COc1ccc2cc(-c3c(-c4ccncc4)nc(-c4ccc(S(C)(=O)=O)cc4C)n3C)ccc2c1 [SJ000573196-1, NJ44157-082B1] | 3.66 | 17.63 | 1.339 | -0.09869 | 0.1738 | 0.5598 | 2.69 | -1.98 |
| Fc1ccc(-c2c(-c3ccncc3)nc3n2CCS3)cc1 [SJ000573197-1, EXSB/CR-9802-49AZ] | 6.614 | 1.128 | 6.192 | 1.347 | 4.223 | -3.2 | 10.89 | 19.21 |
| CS(=O)(=O)Nc1ccc(-c2ccc3c(NC(=O)C4CC4)n[nH]c3c2)cc1 [SJ000573198-1, VB100064-183A1] | 1.64 | 0.4517 | -0.1456 | 7.577 | 1.388 | 0.3925 | 1.756 | -2.07 |
| CN(C)CCCNc1nccc(-c2c(-c3ccc(F)cc3)nn3cc(C(F)(F)F)ccc23)n1 [SJ000573200-1, U14929/105/1] | 4.716 | 6.318 | -0.7094 | 5.185 | 2.988 | 3.151 | 2.615 | 2.291 |
| CCN1CCC(C(=O)Nc2n[nH]c3nnc(-c4cccc(F)c4F)cc23)CC1 [SJ000573202-1, JW48822-155B0] | 19.17 | 106.6 | 98.67 | 22.9 | 2.893 | 18.95 | 52.48 | 29.66 |
| CCn1c(-c2nonc2N)nc2ccncc21 [SJ000573203-1, JS100940-045A1] | 39.85 | 40.02 | -0.06255 | -2.227 | 2.303 | 0.1335 | -1.945 | 1.08 |
| NS(=O)(=O)c1cccc(-c2ccc3c(NC(=O)C4CC4)n[nH]c3c2)c1 [SJ000573205-1, VB100064-175A1] | 4.666 | 1.524 | -2.181 | -1.196 | 8.415 | 11.82 | 1.069 | 7.36 |
